The record followed here is US20100069297A1, “Selective Inhibition of TLR4 Signaling” (priority 2005, published 2010).

Common to all, as to assay type: cell-based, mouse
The subject of assay [1] is TLR4 signaling (LPS-induced IL-1β, MIP-1β, IFN-β, RANTES mRNA). Nature of the assay: LPS-induced gene expression in primary murine macrophages, real-time PCR. Conditions: for effect on induction of IL1-β and IFN-β mRNA (cytokine induction) by LPS: 30 min preincubation with peptide. As to the method:
FIG. 1. Effect of blocking peptides on the cytokine induction by LPS. Thioglycollate-elicited primary murine macrophages were preincubated in the presence of 40 μMof BP for one hour before stimulation with 10 ng/ml of LPS. (A) Quantitative real-time PCR analysis of gene expression. (B) Secretion of IL-1β and IL-6. Concentration of the cytokines was measured after overnight incubation of the cells in the presence of LPS and the peptides. (C) Sensitivity of the LPS-stimulated expression of IFN-β and IL-1β mRNA to varying concentrations of TRAM and MyD88 BP. Total mRNA was isolated 1 hour after LPS stimulation (A and C). *p<0.05; **p<0.01.
FIG. 6. Effect of mutant TRAM BB loop peptides on LPS-induced activation of IL1-β and IFN-β mRNA. Details of the experiments are as described in the legend for FIG. 1, except for the cells were preincubated with peptides only for 30 minutes.
C3H/OuJ mice were purchased from the Jackson Laboratory (Bar Harbor, Me.). Thioglycollate-elicited peritoneal macrophages were harvested and cultured in the presence of E. coli K235 LPS or Pam3Cys as described previously (Salkowski et al., 1999, J. Immunol. 164, 1529).
(§1) Total cellular RNA was extracted from macrophage cultures as described elsewhere and reversed transcribed using AMV Reverse Transcriptase (Promega, Madison, Wis.) and poly-T priming as recommended by the manufacturer. The resulting cDNA was quantified by real time PCR using SYBR Green PCR Master Mix (Applied Biosystems) and ABI Prism 7900HT cycler. Primers for detection of IL-1β, IFN-β, MIP-1β, […]RANTES, and HPRT mRNAs were designed using the Primer Express 2.0 program (Applied Biosystems). Relative gene expression was calculated using ΔCt method with HPRT as a housekeeping gene (1.8̂(CtHPRT−CtGene)) Statistical analysis was performed by one way ANOVA with repeated measures, followed by Dunnett's multiple comparison post hoc test with p≦0.05 chosen as the level of significance.
Mice with targeted mutations in MyD88 (Kawai et al., 2001, supra; Toshchakov et al., 2002, supra) or TIRAP (Yamamoto et al., 2002, Nature 420, 324) retain the capacity to signal through the MyD88-independent pathway. […] Therefore, the first question we sought to address experimentally is whether interactions of the BB-loops of the TIR domains of these adapters affect protein interactions leading to gene expression. To this end, we designed cell permeable peptides whose sequences correspond to the BB-loops of each adapter molecule and measured the ability of each BP to interfere with the induction of immediate response genes induced via MyD88-dependent and independent pathways. […] All BB-loop-containing peptides exerted an inhibitory effect on LPS-induced expression of MyD88-dependent IL-1β and […], as well as MyD88-independent IFN-β and RANTES mRNA, as measured by real-time PCR (FIG. 1A).
(In general: In qPCR the cycle at which signal appears reflects the starting amount.)

The subject of assay [2] is TLR4 signaling (LPS-induced phosphorylation of ERK, JNK, p38). Description: LPS-stimulated activation of MAPKs (pERK, pJNK, pP38), Western blot. Conditions: for effect on LPS-induced activation of ERK, cells preincubated with peptides only for 30 minutes: FIG. 5 and 7, 30 min preincubation; for effect on LPS-induced activation of ERK, cells preincubated with peptides only for 30 minutes / inhibition of LPS-induced activation of ERK / effect on LPS-induced activation (phosphorylation) of MAPKs (ERK, JNK): LPS 10 ng/ml; for inhibition of LPS-induced activation of ERK / effect on LPS-induced activation of p38: 40 μM BP; for effect on LPS-induced activation (phosphorylation) of MAPKs (ERK, JNK): 40 μM, 1 h preincubation; for inhibition of phosphorylation of ERK whether or not 100-fold excess LPS was used: peptide increased from 10 μM to 40 μM, LPS 10 ng/nl or 1 μg/ml. How it is done: (§2) FIG. 2. Effect of blocking peptides on the LPS-stimulated activation of MAPKs and Tyr701 STAT-1. Ten μg of total protein was loaded per lane. A representative blot of three separate experiments is shown. Other details are given in the Materials and Methods section and legend for FIG. 1.
(§3) FIG. 4. Comparative effect of BPs on TLR2-vs. TLR4-mediated activation of MAPKs (A) and IL-1β mRNA expression (B). For Western blot analysis, 4.5 x10^6 primary macrophages were preincubated without or with 40 μM BP and stimulated for 30 min with LPS (10 ng/ml) or Pam3Cys (P3C; 150 ng/ml). The results shown are a representative blot of three separate experiments. Experimental details for FIG. 4B are the same as reported in the legend to FIG. 1A.
FIG. 5. Effect of mutated TRAM BB loop peptides on LPS-induced activation of ERK. Details of the experiment are as in legend for FIG. 4, except for the cells were preincubated with peptides only for 30 minutes.
(§4) SDS-PAGE and Western blot analysis were performed as described previously (Medvedev et al., 2001, J. Immunol. 167, 2257) with minor modifications. Antibodies for detection of activated MAPKs (pERK, pJNK and pP38) were purchased from Cell Signaling Technology (Beverly, Mass.). IRF-1 was detected using a rabbit polyclonal antibody from Santa-Cruz (Santa Cruz, Calif.). Antibody for detection of tyrosine-701 phosphorylated STAT1 was purchased from Zymed Laboratories (San Francisco, Calif.).
Using antibodies specific for the phosphorylated (activated) forms of JNK, ERK, and p38, we next sought to examine the effect of BB-loop-containing inhibitory peptides on LPS-stimulated activation of MAPKs. LPS induces quick and transient activation of MAPKs in primary macrophages (FIG. 2A) that was not affected by the addition of CP. […] The TIRAP BP was the weakest BP; all MAPKs were activated in the presence of it, although to a lesser extent when compared to CP.
(A western blot detects proteins with antibodies after separation by electrophoresis.)

Assay [3] concerns TLR2 signaling (Pam3Cys-induced IL-1β mRNA). Nature of the assay: Pam3Cys-induced cytokine mRNA expression, real-time PCR. How it is done: as §3, §1
Similar to their effect on activation of MAPKs, BPs were much weaker inhibitors with respect to Pam3Cys- vs. LPS-induced expression of IL-1β mRNA.

Assay [4] has as its system TLR2 signaling (Pam3Cys-induced phosphorylation of ERK, JNK, p38). Nature of the assay: Pam3Cys-induced activation of MAPKs, Western blot. Conditions: for effect on P3C-induced activation (phosphorylation) of ERK / effect on P3C-induced activation of p38: 40 μM; for effect on P3C-induced activation (phosphorylation) of ERK: P3C 150 ng/ml. How it is done: as §3, §4
Apart from the use of a CP, we sought to analyze further the specificity of the inhibitory effects of BB-loop peptides on TLR signaling. Therefore, we also tested the effect of the peptides on signal transduction elicited from TLR2.

For assay [5], the system named is TLR4 signaling (IRF-1 protein). Description: LPS-induced upregulation of IRF-1 protein, SDS-PAGE/Western. Conditions: 100 ng/ml LPS, 1.5 h. How it is done:
(§5) FIG. 3. Effect of blocking peptides on activation of IRF-3 and IRF-1. […] Primary mouse macrophages were stimulated with 100 ng/ml of LPS. Seventeen μg of total protein was loaded per lane of the native gel. Other details are as described in the legend for FIG. 1.
as §4
Importantly, MyD88 knockout macrophages are capable of inducing IRF-1 mRNA (Yamamoto et al., 2003, supra).

In assay [6] the test system is TLR4 signaling (LPS-induced STAT-1 phosphorylation). Nature of the assay: LPS-induced phosphorylation of STAT-1, Western blot. Conditions: 40 μM BP. How it is done: as §2, §4
Assay [7] relates to TLR4 signaling (IRF-3 dimerization). Description: LPS-induced dimerization of IRF-3, native PAGE. The conditions noted are these: 100 ng/ml LPS, 1.5 hr. As to the method:
as §5
Native PAGE for detection of IRF-3 activation was performed with minor modifications (Iwamura et al., 2001, Genes Cells 6, 375). One×10^7 thioglycollate-elicited cells were plated into a 6 cm dish and washed with PBS to remove non-adherent cells. Primary macrophages were stimulated with 100 ng/ml of LPS for 1.5 hr and lysed in buffer containing 50 mM TRIS-HCl pH 7.5, 150 mM NaCl, 1 mM EDTA, 1% NP-40, 1 mM sodium orthovanadate and 1× Complete protease inhibitor cocktail (Roche, Mannheim, Germany). Lysates were mixed with native lysis buffer (Bio-Rad, Hercules, Calif.) supplemented with 1% deoxycholate. Fifteen to 20 μg protein per lane was electrophoresed on a non-reducing gel and immunoblotted. IRF-3 dimers and monomers were detected using rabbit anti-IRF-3 antibody (Zymed Laboratories) by Western analysis.
Interferon Regulatory Factors (IRFs) were first identified as important transcriptional mediators of the antiviral immune response (reviewed in Taniguchi et al., 2001, Annu. Rev. Immunol. 19, 623). Later, it was recognized that this family of transcription factors plays an essential role in signal transduction mediated by different TLRs. IRF-1 is regulated transcriptionally by signaling from different TLRs, as well as by cytokines induced by TLR engagement (e.g., IL-1, TNF, and IFN-β) (Fujita et al., 1989, Proc. Natl. Acad. Sci. USA 86, 9936). In contrast, IRF-3 is constitutively expressed in many cell types (Au et al., 1995, Proc. Natl. Acad. Sci. USA 92, 11675). Upon stimulation through TLR4 or TLR3, IRF-3 is phosphorylated at multiple sites in its C-terminus, and this modification enables it to dimerize and translocate to the nucleus where it targets IRF-3-responsive genes (Kawai et al., 2001, supra; Lin et al., 1999, Mol. Cell. Biol. 19, 2465).

[8] abbreviates: listed as Antennapedia DD loop peptide.

“Also recorded” adds a separate entry of the source. Ends that are not written are not given here.

As for IVFAAMPCGRLHLQ [E/A mutant], the “effect on induction of IL1-β and IFN-β mRNA (cytokine induction) by LPS” value (“effect on induction” below) in assay [1] is reported as “did not affect considerably inhibitory capacity”. Moreover, the “effect on LPS-induced activation of ERK, cells preincubated with peptides only for 30 minutes” value in assay [2] is listed as “did not affect considerably inhibitory capacity”.

Consider KYKAMKKDFPSILR [MyD88 DD loop peptide], for which the “effect on induction” value in assay [1] is given as “not inhibitory”. The “effect on LPS-induced activation of ERK, cells preincubated with peptides only for 30 minutes” value is on record as “not inhibitory” in assay [2] and “does not inhibit” in assay [2] (setting [8]). Besides, the “effect on P3C-induced cytokine induction” value in assay [3] was “not inhibitory”. Further, the “effect on P3C-induced activation (phosphorylation) of ERK” value (from here on “effect … (phosphorylation) of ERK”) in assay [4] is “not inhibitory”; in assay [4] (setting [8]), “does not inhibit”.

In the case of “RQIKIWFONRRMKWKKFCEEFQVPGRGELH (RQIKIWFQNRRMKWKKFCEEFQVPGRGELH; TRIF blocking peptide) [TRIF-BP]”, in assay [5], the “effect on LPS-induced upregulation of IRF-1 protein” value was “intermediate efficacy”. In addition, the “inhibition of LPS-induced Tyr701 phosphorylation of STAT-1” value in assay [6] is on record as “strongly inhibited”. Also, in assay [2], the “inhibition of LPS-induced activation of ERK” value is “incomplete” and the “effect on LPS-induced activation (phosphorylation) of MAPKs (ERK, JNK)” value (from here on “effect on LPS-induced activation … (ERK, JNK)”) was “strongly inhibited”. The “inhibition of LPS-induced dimerization of IRF-3” value in assay [7] is on record as “significantly inhibited”.

“RQIKIWFQNRRMKWKKLHERNFVPGKSIVE (TLR1/6 blocking peptide) [TLR1/6-BP]”: the “effect on LPS-induced activation … (ERK, JNK)” value in assay [2] was “affected neither”. Besides, the “inhibition of Pam3Cys-induced phosphorylation of MAPKs” value in assay [4] (40 μM BP, Pam3Cys 150 ng/ml, 30 min) is “affected neither”.

With “RQIKIWFQNRRMKWKKLHKRDFVPGKWIID [TLR2-BP]”, the “effect on induction” value in assay [1] was “inhibitory”. Further, in assay [2], the “effect on LPS-induced activation of p38” value is on record as “did not inhibit” and the “inhibition of phosphorylation of ERK whether or not 100-fold excess LPS was used” value was “effectively inhibited”. The “inhibition of LPS-induced activation of ERK” value in assay [2] (listed as TLR2 BB peptide) was “potent inhibitors; also recorded: inhibit”. For the same sequence, in assay [3], the “effect on P3C-induced cytokine induction” value was “inhibitory”. The “effect on P3C-induced activation of p38” value in assay [4] was “did not inhibit”. Moreover, the “effect … (phosphorylation) of ERK” value in assay [4] (listed as TLR2 BB peptide) was “diminished and delayed; also recorded: to some extent”.

With “RQIKIWFQNRRMKWKKLHYRDFIPGVAIAA [TLR4-BP]”, in assay [1], the “effect on induction” value is “inhibitory”. Moreover, in assay [2], the “effect on LPS-induced activation of p38” value was “did not inhibit” and the “inhibition of phosphorylation of ERK whether or not 100-fold excess LPS was used” value is “effectively inhibited”. Moreover, the “inhibition of LPS-induced activation of ERK” value in assay [2] (listed as TLR4 BB peptide) is reported as “potent inhibitors; also recorded: inhibit”. Besides, the “effect on P3C-induced cytokine induction” value in assay [3] is given as “inhibitory”. Also, the “effect on P3C-induced activation of p38” value in assay [4] was “did not inhibit”. Also, the “effect … (phosphorylation) of ERK” value in assay [4] (listed as TLR4 BB peptide) is given as “to a lesser extend; also recorded: to some extent”.

Turning to “RQIKIWFQNRRMKWKKSLHGRGDPMEAFII (Control peptide - BLAST generated) [reference compound]”, in assay [1] (40 μM BP, 1 h preincubation, 10 ng/ml LPS, mRNA 1 h after LPS), the “inhibitory effect on LPS-induced expression of IL-1β, MIP-1β, IFN-β and RANTES mRNA” value was “not significantly affected”. Further, the “effect on LPS-induced upregulation of IRF-1 protein” value in assay [5] is “strong upregulation”. Besides, the “effect on LPS-induced activation … (ERK, JNK)” value in assay [2] was “not affected”. Also, the “effect on Pam3Cys-induced expression of IL-1β mRNA” value in assay [3] (40 μM, Pam3Cys) was “not significantly affected”.
